Values joined by “and” are separate entries in the source; they are usually repeats but may differ in a detail not shown here. Equal values may be shown once.
How the values were obtained:
Format in all cases: biochemical
hLPCAT2 [1] = target: T1, hLPCAT2 (Homo sapiens, UniProt Q7L5N7); assay: lyso-PAFAT (acetyltransferase) activity assay, PAF product by LC-MS/MS; details: for IC50: 0, 0.2, 0.6, 2, 6 and 20 μM of each compound in triplicate, LC-MS/MS, read-out: IC50, product PAF, enzyme hLPCAT2; for percentage inhibition, product PAF, hLPCAT2: 20 μM compound, microsomal fractions of nonstimulated CHO-S-PAFR cells, n = 3, mean ± SEM; for selectivity for hLPCAT2 over hLPCAT1: from IC50 values of Table 1
T1 construct: expressed in transfected cells; host or cells: CHO-S-PAFR cells (microsomal fraction), with or without mcPAF stimulation
T1 sequence (Q7L5N7 1-544): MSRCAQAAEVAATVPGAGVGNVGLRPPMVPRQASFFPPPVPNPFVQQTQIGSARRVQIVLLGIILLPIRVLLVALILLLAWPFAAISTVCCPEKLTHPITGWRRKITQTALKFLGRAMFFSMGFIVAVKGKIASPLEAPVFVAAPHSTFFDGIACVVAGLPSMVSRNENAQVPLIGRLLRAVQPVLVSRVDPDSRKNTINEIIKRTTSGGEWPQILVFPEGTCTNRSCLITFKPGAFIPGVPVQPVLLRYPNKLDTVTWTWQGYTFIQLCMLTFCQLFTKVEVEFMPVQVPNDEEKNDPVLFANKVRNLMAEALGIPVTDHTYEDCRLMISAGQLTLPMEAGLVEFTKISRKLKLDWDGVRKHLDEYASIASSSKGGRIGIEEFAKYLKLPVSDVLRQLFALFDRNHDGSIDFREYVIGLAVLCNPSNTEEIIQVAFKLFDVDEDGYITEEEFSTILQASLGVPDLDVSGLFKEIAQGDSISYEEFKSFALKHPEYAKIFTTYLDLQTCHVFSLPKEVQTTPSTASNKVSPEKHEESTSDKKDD
Protocol: (§1) Microsomal protein fractions (0.5 μg) supplemented with the indicated compound concentrations were added to the reaction mixture containing 100 mM Tris-HCl (pH 7.4), 1 μM CaCl2, 0.015% Tween-20, and two substrates. For acetyltransferase activity, the substrates were 1 mM acetyl-CoA and 5 μM d4-lyso-PAF; for the acyltransferase activity of LPCAT1 or LPCAT2, the substrates were, respectively, palmitoyl-CoA and d31-16:0 LPC or arachidonoyl-CoA and d4-lyso-PAF (all 5 μM). Each lysophospholipid contained fatty acid at the sn-1 position. After incubation at 37°C for 5 min, the reactions were stopped by adding 300 μl methanol containing 17:0 LPC or 14:0/14:0 PC as an internal standard. Deuterium-labeled products were analyzed by LC-MS/MS (Waters, Milford, MA and Thermo Scientific, Waltham, MA). […]
(§2) Steps 2 to 5 screening: 96-well plate assay
(§3) Acetyltransferase and acyltransferase assays were developed in 96-well plates. The microsomal hLPCAT2, obtained from mcPAF-stimulated CHO-S-PAFR cells was used in steps 1, 2, and 5. The microsomal hLPCAT1 obtained from unstimulated CHO-S cells was used in steps 3 to 5. Each well of the 96-well plates contained 30 µl of 15 µg/ml protein, 600 nl of 2 mM compound, 30 µl buffer C, and two substrates (Fig. 1B and C).
(§4) Substrate concentrations were as follows: acetyl-CoA, 250 or 1000 µM acetyl-CoA; […]
(§5) arachidonoyl-CoA, 5 µM; palmitoyl-CoA, 5 µM; d4-lyso-PAF, 5 µM; and d31-LPC, 5 µM.
For step 5, compound concentrations were 0, 0.167, 0.67, 2, 6.7, and 20 µM. The deuterium-labeled products were measured by LC-MS/MS. Percentage inhibition (steps 2 to 4) or IC50 (step 5) was used as the hit criterion.
Step 6 screening: BSA assay
The acetyltransferase assay was performed with 20 µM of each compound and microsomal hLPCAT2 from step 1. The assay mixture contained 0.4% BSA and two substrates for lyso-PAFAT activity: 1 mM acetyl-CoA and 5 µM d4-lyso-PAF. Percentage inhibition values were determined.
(§6) Step 7 screening: species-specific differences
(§7) To evaluate the effects on the activity of mouse or human LPCAT1 and LPCAT2, each microsomal fraction was obtained using CHO-S-PAFR cells with or without mcPAF (200 nM) stimulation for 5 min. Acetyltransferase and acyltransferase assays were performed with 20 µM of each compound. Percentage inhibition was calculated in each

hLPCAT1 [2] = target: T2, hLPCAT1 (Homo sapiens, UniProt Q8NF37); assay: as above; details: for IC50: 0, 0.2, 0.6, 2, 6 and 20 μM of each compound in triplicate, LC-MS/MS, read-out: IC50, product PAF, enzyme hLPCAT1; for percentage inhibition, product PAF, hLPCAT1: 20 μM compound, microsomal fractions of nonstimulated CHO-S-PAFR cells, n = 3, mean ± SEM
T2 construct: expressed in transfected cells
T2 sequence (Q8NF37 1-534): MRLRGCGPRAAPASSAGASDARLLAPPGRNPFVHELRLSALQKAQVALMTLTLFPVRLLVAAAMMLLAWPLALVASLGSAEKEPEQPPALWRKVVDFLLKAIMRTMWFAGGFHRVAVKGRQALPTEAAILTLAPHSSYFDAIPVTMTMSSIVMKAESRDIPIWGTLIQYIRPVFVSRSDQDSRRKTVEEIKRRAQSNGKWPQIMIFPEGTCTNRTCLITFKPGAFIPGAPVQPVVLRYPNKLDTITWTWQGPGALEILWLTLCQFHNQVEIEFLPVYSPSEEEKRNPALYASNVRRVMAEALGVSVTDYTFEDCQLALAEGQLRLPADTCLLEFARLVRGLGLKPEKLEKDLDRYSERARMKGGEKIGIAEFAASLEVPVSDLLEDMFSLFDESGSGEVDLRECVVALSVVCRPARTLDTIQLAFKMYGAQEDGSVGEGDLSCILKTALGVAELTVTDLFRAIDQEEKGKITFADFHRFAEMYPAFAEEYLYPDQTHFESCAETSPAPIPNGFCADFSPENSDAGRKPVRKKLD
Protocol: as §1, §2, §3, §4, §5
(§8) For step 5, compound concentrations were 0, 0.167, 0.67, 2, 6.7, and 20 µM. The deuterium-labeled products were measured by LC-MS/MS. Percentage inhibition (steps 2 to 4) or IC50 (step 5) was used as the hit criterion. […]
as §6, §7

hLPCAT2 [3] = target: T1, hLPCAT2; assay: acyltransferase activity assay, 16:0/20:4 alkyl-PC product by LC-MS/MS; details: for IC50: 0, 0.2, 0.6, 2, 6 and 20 μM of each compound in triplicate, LC-MS/MS, read-out: IC50, product Alkyl-PC (16:0/20:4 alkyl-PC), enzyme hLPCAT2; for percentage inhibition, product 16:0/20:4 Alkyl-PC, hLPCAT2: 20 μM compound, microsomal fractions of nonstimulated CHO-S-PAFR cells, n = 3, mean ± SEM
Protocol: as §1, §2, §3, §4, §5, §8, §6, §7

hLPCAT1 [4] = target: T2, hLPCAT1; assay: acyltransferase activity assay, DPPC product by LC-MS/MS; details: for IC50: 0, 0.2, 0.6, 2, 6 and 20 μM of each compound in triplicate, LC-MS/MS, read-out: IC50, product DPPC, enzyme hLPCAT1; for percentage inhibition, product DPPC, hLPCAT1: 20 μM compound, microsomal fractions of nonstimulated CHO-S-PAFR cells, n = 3, mean ± SEM
Protocol: as §1, §2, §3, §4, §5, §8, §6, §7

| IC50 (hLPCAT2 [1]) | percentage inhibition, product PAF, hLPCAT2 (hLPCAT2 [1]) [percentage] | selectivity for hLPCAT2 over hLPCAT1 (hLPCAT2 [1]) | IC50 (hLPCAT1 [2]) [nM] | percentage inhibition, product PAF, hLPCAT1 (hLPCAT1 [2]) [percentage] | IC50 (hLPCAT2 [3]) [nM] | percentage inhibition, product 16:0/20:4 Alkyl-PC, hLPCAT2 (hLPCAT2 [3]) [percentage] | IC50 (hLPCAT1 [4]) [nM] | percentage inhibition, product DPPC, hLPCAT1 (hLPCAT1 [4]) [percentage] | SMILES |
| --- | --- | --- | --- | --- | --- | --- | --- | --- | --- |
| 5500 nM | 90.8 ± 3.0 | approximately 10 fold | > 20000 | 11.9 ± 13.1 | 13300 | 83.1 ± 4.3 | > 20000 | 19.5 ± 8.0 | CC(C)OC(=O)c1ccc(N2C(=O)C(Cl)=C(Nc3ccccc3O)C2=O)cc1 [TSI-07] |
| ~100 nM and 140 nM | 99.4 ± 0.2 | approximately 10 fold | 1010 | 78.6 ± 2.8 | 330 | 80.4 ± 2.7 | > 20000 | 14.2 ± 4.8 | CCCCOC(=O)c1ccc(N2C(=O)C(Cl)=C(Cl)C2=O)cc1 [TSI-11, butyl 4-(3,4-dichloro-2,5-dioxopyrrol-1-yl)benzoate] |
| 2170 nM |  |  | 8000 |  | 1160 |  | > 20000 |  | O=C1C(Cl)=C(N2CCOCC2)C(=O)N1c1ccc(Oc2ccccc2)cc1 [TSI-02, 3-chloro-4-morpholin-4-yl-1-(4-phenoxyphenyl)pyrrole-2,5-dione] |
| ~100 nM and 130 nM | 99.5 ± 0.2 | approximately 10 fold | 2420 | 76.1 ± 4.4 | 300 | 85.4 ± 3.0 | > 20000 | 23.9 ± 3.4 | CCCOC(=O)c1ccc(N2C(=O)C(Cl)=C(Cl)C2=O)cc1 [TSI-10] |

| SMILES | IC50 (hLPCAT2 [1]) | percentage inhibition, product PAF, hLPCAT2 (hLPCAT2 [1]) [percentage] | selectivity for hLPCAT2 over hLPCAT1 (hLPCAT2 [1]) | IC50 (hLPCAT1 [2]) [nM] | percentage inhibition, product PAF, hLPCAT1 (hLPCAT1 [2]) [percentage] | IC50 (hLPCAT2 [3]) [nM] | percentage inhibition, product 16:0/20:4 Alkyl-PC, hLPCAT2 (hLPCAT2 [3]) [percentage] | IC50 (hLPCAT1 [4]) [nM] | percentage inhibition, product DPPC, hLPCAT1 (hLPCAT1 [4]) [percentage] |
| --- | --- | --- | --- | --- | --- | --- | --- | --- | --- |
| CC(C)OC(=O)c1ccc(N2C(=O)C(Cl)=C(Cl)C2=O)cc1 [TSI-01, propan-2-yl 4-(3,4-dichloro-2,5-dioxopyrrol-1-yl)benzoate] | 470 nM | 99.8 ± 0.1 | approximately 10 fold | 3020 | 75.9 ± 5.2 | 1270 | 95.2 ± 1.3 | > 20000 | 25.3 ± 8.7 |
